The text below walks through data of patent US20010020002A1, “Androgen activity antagonists as therapies for anorexia, anorexia nervosa and disorders characterized by a pathologically underweight condition” (VELA PHARMACEUTICALS INC., priority 1997, published 2001).

The conditions of data set [1]: in vivo; cited from earlier work.
A short description of data set [2]: Example 5: flutamide therapy of cachexia in an AIDS patient. The format is in vivo, human. The note with it: person with AIDS, 750 mg daily in three divided doses.
The nature of data set [3]: Example 1: flutamide therapy of a patient with anorexia nervosa. The format is in vivo, human. Particulars: person with AN, 250 mg daily, follow-up in one week.
Protocol: The dose of flutamide is increased to 500 mg daily (250 mg twice a day). They then return every month for an assessment of their symptomatology using the Yale-Brown-Cornell Eating Disorder Scale (YBC-EDS).

SMILES strings stand for the structures.

As to `CC1(C)NC(=O)N(c2ccc([N+](=O)[O-])c(C(F)(F)F)c2)C1=O` [Nilutamide, nilutamide], the half-life in data set [1] was 40 h.

With `CC(C)C(=O)Nc1ccc([N+](=O)[O-])c(C(F)(F)F)c1` [flutamide], the half-life in data set [1] is 5.2 h. Also, in data set [2], the initial side effects entry is “initial problems with diarrhea and breast tenderness”; the tolerability of therapy result was “tolerated well”. For the same compound, the tolerability of therapy entry in data set [3] is listed as “tolerated the therapy well”.
